Source: PMC4021972 (2014)

System: KRAS utr-2 (RNA, G4) GGAAGGCGGCGG
Assay: UV-vis titration (Soret band)
Conditions: 100 mM KCl; 50 mM Tris-HCl pH 7.4 (from methods); 6 μM C14 titrated with G4-RNA; simple binding equation

- KD: ~ 5 × 10^-7 M
Compound: CCCCCCCCCCCCCC[n+]1ccc(-c2c3nc(c(-c4cc[n+](C)cc4)c4ccc([nH]4)c(-c4cc[n+](C)cc4)c4nc(c(-c5cc[n+](C)cc5)c5ccc2[nH]5)C=C4)C=C3)cc1
